target: CDK2 (human) (UniProt P24941); assay: Enzyme Assay; details: not given

Row | SMILES | Ki
1 | Nc1nc(NC2CN(C(=O)c3ccc([N+](=O)[O-])cc3)C2)sc1C(=O)c1c(F)cccc1F | 360 nM
2 | CN(CCN)c1ccc(S(=O)(=O)N2CCC(Nc3nc(N)c(C(=O)c4c(F)cccc4F)s3)CC2)cn1 | 4.9 nM

same assay, conditions: concentration not given here

Row | SMILES | inhibition
3 | CCC(C)(C)C(=O)N1CCC(Nc2nc(N)c(C(=O)c3c(F)cccc3F)s2)CC1 | 32%
4 | CSCC(=O)N1CCC(Nc2nc(N)c(C(=O)c3c(F)cccc3F)s2)CC1 | 84%
5 | NC(=S)Nc1ccc(C(=O)N2CCC(Nc3nc(N)c(C(=O)c4c(F)cccc4F)s3)CC2)cc1 | 73%
6 | Cc1cccc(OCC(=O)N2CCC(Nc3nc(N)c(C(=O)c4c(F)cccc4F)s3)CC2)c1C | 40%
7 | CC(C(=O)N1CCC(Nc2nc(N)c(C(=O)c3c(F)cccc3F)s2)CC1)c1ccc(Cl)cc1 (stereo not given) | 48%
8 | CC(=O)SC(C)CC(=O)N1CCC(Nc2nc(N)c(C(=O)c3c(F)cccc3F)s2)CC1 (stereo not given) | 50%
9 | Cc1ccc(C(=O)N2CCC(Nc3nc(N)c(C(=O)c4c(F)cccc4F)s3)CC2)cn1 | 20%
10 | Nc1nc(NC2CCN(C(=O)C3(c4ccccc4)CC3)CC2)sc1C(=O)c1c(F)cccc1F | -2%
11 | CC(=O)O[C@H](C(=O)N1CCC(Nc2nc(N)c(C(=O)c3c(F)cccc3F)s2)CC1)c1ccccc1 | 41%
12 | Nc1nc(NC2CCN(C(=O)Cc3ccncc3)CC2)sc1C(=O)c1c(F)cccc1F | 17%
13 | Nc1nc(NC2CCN(C(=O)c3ccccc3-n3cccc3)CC2)sc1C(=O)c1c(F)cccc1F | 50%
14 | Nc1nc(NC2CCN(C(=O)CCCc3ccccc3)CC2)sc1C(=O)c1c(F)cccc1F | 38%
15 | CC1(C)C2CC[C@]1(CS(=O)(=O)N1CCC(Nc3nc(N)c(C(=O)c4c(F)cccc4F)s3)CC1)C(=O)C2 | -1%
16 | Nc1nc(NC2CCN(C(=O)/C=C/c3cccc(F)c3F)CC2)sc1C(=O)c1c(F)cccc1F | 51%
17 | CC(=O)CCC(=O)N1CCC(Nc2nc(N)c(C(=O)c3c(F)cccc3F)s2)CC1 | 15%
18 | CCSc1ncccc1C(=O)N1CCC(Nc2nc(N)c(C(=O)c3c(F)cccc3F)s2)CC1 | 38%
19 | Nc1nc(NC2CCN(C(=O)CC3CCCC3)CC2)sc1C(=O)c1c(F)cccc1F | -20%
20 | Cc1ccc(OCC(=O)N2CCC(Nc3nc(N)c(C(=O)c4c(F)cccc4F)s3)CC2)cc1 | 57%
21 | Nc1nc(NC2CCN(C(=O)c3cccnc3)CC2)sc1C(=O)c1c(F)cccc1F | 28%
22 | CCCCOc1ccc(C(C)(C)CC)cc1S(=O)(=O)N1CCC(Nc2nc(N)c(C(=O)c3c(F)cccc3F)s2)CC1 | -30%
23 | Nc1nc(NC2CCN(C(=O)CSc3ccncc3)CC2)sc1C(=O)c1c(F)cccc1F | 23%

Row | SMILES | inhibition
24 | Nc1nc(NC2CCN(C(=O)/C=C/c3ccc(F)cc3F)CC2)sc1C(=O)c1c(F)cccc1F | 28%
25 | Cc1ccoc1C(=O)N1CCC(Nc2nc(N)c(C(=O)c3c(F)cccc3F)s2)CC1 | 31%
26 | CC(=O)OC(C(=O)N1CCC(Nc2nc(N)c(C(=O)c3c(F)cccc3F)s2)CC1)c1ccccc1 (stereo not given) | -5%
27 | CCOc1cccc(CC(=O)N2CCC(Nc3nc(N)c(C(=O)c4c(F)cccc4F)s3)CC2)c1 | 77%
28 | Nc1cccc(CC(=O)N2CCC(Nc3nc(N)c(C(=O)c4c(F)cccc4F)s3)CC2)c1 | 61%
29 | COc1c(C)cc(C(=O)N2CCC(Nc3nc(N)c(C(=O)c4c(F)cccc4F)s3)CC2)cc1C | 39%
30 | CC1(CCC(=O)N2CCC(Nc3nc(N)c(C(=O)c4c(F)cccc4F)s3)CC2)SCCS1 | 78%
31 | CC(C)(C)c1ccc(CC(=O)N2CCC(Nc3nc(N)c(C(=O)c4c(F)cccc4F)s3)CC2)cc1 | 55%
32 | C[C@H](CC(=O)N1CCC(Nc2nc(N)c(C(=O)c3c(F)cccc3F)s2)CC1)c1ccccc1 | 49%
33 | Nc1nc(NC2CCN(C(=O)c3ccc4ccccc4n3)CC2)sc1C(=O)c1c(F)cccc1F | 9%
34 | N#Cc1ccc(NCC(=O)N2CCC(Nc3nc(N)c(C(=O)c4c(F)cccc4F)s3)CC2)cc1 | 22%
35 | CSc1ccccc1C(=O)N1CCC(Nc2nc(N)c(C(=O)c3c(F)cccc3F)s2)CC1 | 40%
36 | C[C@@H](C(=O)N1CCC(Nc2nc(N)c(C(=O)c3c(F)cccc3F)s2)CC1)c1ccccc1 | 21%
37 | COc1ccc(Cl)cc1C(=O)N1CCC(Nc2nc(N)c(C(=O)c3c(F)cccc3F)s2)CC1 | 18%
38 | Cc1ccc(OCC(=O)N2CCC(Nc3nc(N)c(C(=O)c4c(F)cccc4F)s3)CC2)cc1C | 52%
39 | Nc1nc(NC2CCN(C(=O)Cc3cccc(O)c3)CC2)sc1C(=O)c1c(F)cccc1F | 44%
40 | C=CCC(C)C(=O)N1CCC(Nc2nc(N)c(C(=O)c3c(F)cccc3F)s2)CC1 (stereo not given) | 21%
41 | CCOCC(=O)N1CCC(Nc2nc(N)c(C(=O)c3c(F)cccc3F)s2)CC1 | 62%
42 | Nc1nc(NC2CCN(C(=O)c3cc(F)c(F)c(F)c3)CC2)sc1C(=O)c1c(F)cccc1F | 65%
43 | COCCC(=O)N1CCC(Nc2nc(N)c(C(=O)c3c(F)cccc3F)s2)CC1 | 33%
44 | CN1CCC[C@H]1C(=O)N1CCC(Nc2nc(N)c(C(=O)c3c(F)cccc3F)s2)CC1 | 39%

Row | SMILES | inhibition
45 | Nc1nc(NC2CCN(C(=O)CC3=CCCCC3)CC2)sc1C(=O)c1c(F)cccc1F | 51%
46 | Nc1nc(NC2CCN(C(=O)CCCN3C(=O)C=CC3=O)CC2)sc1C(=O)c1c(F)cccc1F | 43%
47 | CSCCC(O)C(=O)N1CCC(Nc2nc(N)c(C(=O)c3c(F)cccc3F)s2)CC1 (stereo not given) | 65%
48 | CCC(=O)C(=O)N1CCC(Nc2nc(N)c(C(=O)c3c(F)cccc3F)s2)CC1 | 15%
49 | Cc1c(C(=O)N2CCC(Nc3nc(N)c(C(=O)c4c(F)cccc4F)s3)CC2)oc2ccccc12 | 38%
50 | CC(C)(C)C1CCC(C(=O)N2CCC(Nc3nc(N)c(C(=O)c4c(F)cccc4F)s3)CC2)CC1 (stereo not given) | 34%
51 | Nc1nc(NC2CCN(C(=O)CCC(=O)c3ccccc3)CC2)sc1C(=O)c1c(F)cccc1F | 5%
52 | C=CC(C)C(=O)N1CCC(Nc2nc(N)c(C(=O)c3c(F)cccc3F)s2)CC1 (stereo not given) | 37%
53 | Nc1nc(NC2CCN(C(=O)c3ccc(Cl)cc3F)CC2)sc1C(=O)c1c(F)cccc1F | 68%
54 | Nc1nc(NC2CCN(C(=O)c3ccc4c(c3)C(=O)OC4=O)CC2)sc1C(=O)c1c(F)cccc1F | 53%
55 | Cc1cc(F)ccc1OCC(=O)N1CCC(Nc2nc(N)c(C(=O)c3c(F)cccc3F)s2)CC1 | 80%
56 | Nc1nc(NC2CCN(C(=O)c3ccc(-n4cccc4)cc3)CC2)sc1C(=O)c1c(F)cccc1F | 69%
57 | Nc1nc(NC2CCN(C(=O)c3ccc(CO)cc3)CC2)sc1C(=O)c1c(F)cccc1F | 47%
58 | Nc1nc(NC2CCN(C(=O)Cc3sc(O)nc3O)CC2)sc1C(=O)c1c(F)cccc1F | 58%
59 | COc1cscc1C(=O)N1CCC(Nc2nc(N)c(C(=O)c3c(F)cccc3F)s2)CC1 | 58%
60 | Nc1nc(NC2CCN(C(=O)CCCS)CC2)sc1C(=O)c1c(F)cccc1F | 23%
61 | Nc1nc(NC2CCN(C(=O)Cc3ccccc3)CC2)sc1C(=O)c1c(F)cccc1F | 66%
62 | CC(C)=CC1C(C(=O)N2CCC(Nc3nc(N)c(C(=O)c4c(F)cccc4F)s3)CC2)C1(C)C (stereo not given) | 10%
63 | CC(C)c1cc(C(C)C)c(S(=O)(=O)N2CCC(Nc3nc(N)c(C(=O)c4c(F)cccc4F)s3)CC2)c(C(C)C)c1 | -17%
64 | Nc1nc(NC2CCN(C(=O)CCc3cccc(O)c3)CC2)sc1C(=O)c1c(F)cccc1F | 40%
65 | Nc1nc(NC2CCN(C(=O)c3ccc(F)c(F)c3)CC2)sc1C(=O)c1c(F)cccc1F | 56%

Source: the Kinase Knowledgebase extract (Sharma et al. 2016)
